Test results published in US6274715A, “Tricyclic erythromycin derivatives” (priority 1997, dated 2001).
In brackets after ≈: the same amount, converted by molar mass.

How the values were obtained:
Format in all cases: cell-based
[1] = tested on: STAPHYLOCOCCUS AUREUS A5177; experiment: In vitro antibacterial activity, MIC, BHI agar dilution; settings: S. aureus A5177, unit assumed
[2] = tested on: STAPHYLOCOCCUS AUREUS A-5278; experiment: as above; settings: S. aureus A-5278, unit assumed
[3] = tested on: STAPHYLOCOCCUS AUREUS CMX 642A; experiment: as above; settings: S. aureus CMX 642A, unit assumed
[4] = tested on: STAPHYLOCOCCUS AUREUS NCTC10649M; experiment: as above; settings: S. aureus NCTC10649M, unit assumed
[5] = tested on: STAPHYLOCOCCUS AUREUS CMX 553; experiment: as above; settings: S. aureus CMX 553, unit assumed
[6] = tested on: STAPHYLOCOCCUS AUREUS 1775; experiment: as above; settings: S. aureus 1775, unit assumed
[7] = tested on: STAPHYLOCOCCUS EPIDERMIDIS 3519; settings: S. epidermidis 3519; BHI agar; unit assumed
EN[…] ATCC 8043 = experiment: In vitro antibacterial activity, MIC, BHI agar dilution; settings: E. faecium ATCC 8043, unit assumed
Summary of the method: (§1)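 MIC was read visually as the lowest drug concentration showing no growth, a slight haze or sparsely isolated colonies relative to a compound-free BHI plate. Plates held serial aqueous dilutions in BHI agar, were spot-inoculated with 1:100 (or 1:10) culture dilutions and incubated 20 to 24 hours at 35-37° C.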

M[…] ATCC 4698 = experiment: as above; settings: M. luteus ATCC 4698, unit assumed
Summary of the method: as §1

M[…] ATCC 9341 = experiment: as above; settings: M. luteus ATCC 9341, unit assumed
Summary of the method: as §1

STR[…] 508 = experiment: as above; settings: S. agalactiae CMX 508, unit assumed
Summary of the method: as §1

[8] = tested on: STREPTOCOCCUS BOVIS A-5169; experiment: as above; settings: S. bovis A-5169, unit assumed
[9] = tested on: STREPTOCOCCUS PYOGENES EES61; experiment: as above; settings: S. pyogenes EES61, unit assumed
[10] = tested on: STREPTOCOCCUS PYOGENES 930; experiment: as above; settings: S. pyogenes 930, unit assumed
ESCHERICHIA COLI JUHL = settings: E. coli JUHL; BHI agar; unit assumed
ESCHERICHIA COLI SS = experiment: In vitro antibacterial activity, MIC, BHI agar dilution; settings: E. coli SS, unit assumed
ESCHERICHIA COLI DC-2 = experiment: as above; settings: E. coli DC-2, unit assumed
ESCHERICHIA COLI H560 = experiment: as above; settings: E. coli H560, unit assumed
ESCHERICHIA COLI KNK 437 = settings: E. coli KNK 437; BHI agar; unit assumed
[11] = tested on: ENTEROBACTER AEROGENES ATCC 13048; experiment: In vitro antibacterial activity, MIC, BHI agar dilution; settings: E. aerogenes ATCC 13048, unit assumed
[12] = tested on: KLEBSIELLA PNEUMONIAE ATCC 8045; experiment: as above; settings: K. pneumoniae ATCC 8045, unit assumed
[13] = tested on: PROVIDENCIA STUARTII CMX 640; settings: P. stuartii CMX 640; BHI agar; unit assumed
[14] = tested on: PSEUDOMONAS AERUGINOSA BMH10; experiment: In vitro antibacterial activity, MIC, BHI agar dilution; settings: P. aeruginosa BMH10, unit assumed
[15] = tested on: PSEUDOMONAS AERUGINOSA 5007; experiment: as above; settings: P. aeruginosa 5007, unit assumed
[16] = tested on: PSEUDOMONAS AERUGINOSA K799/WT; experiment: as above; settings: P. aeruginosa K799/WT, unit assumed
[17] = tested on: PSEUDOMONAS AERUGINOSA K799/61; experiment: as above; settings: P. aeruginosa K799/61, unit assumed
PSEUDOMONAS CEPACIA 296I = experiment: as above; settings: P. cepacia 296I, unit assumed
[18] = tested on: ACINETOBACTER CALCOACETICUS CMX 669; experiment: as above; settings: A. calcoaceticus CMX 669, unit assumed
[19] = tested on: PSEUDOMONAS AERUGINOSA DPHD-5263; experiment: as above; settings: P. aeruginosa DPHD-5263, unit assumed
[20] = tested on: PSEUDOMONAS AERUGINOSA DPHD-2862; experiment: as above; settings: P. aeruginosa DPHD-2862, unit assumed
CANDIDA ALBICANS CCH 442 = experiment: as above; settings: C. albicans CCH 442, unit assumed
[21] = tested on: MYCOBACTERIUM SMEGMATIS ATCC 114; experiment: as above; settings: M. smegmatis ATCC 114, unit assumed
H. Influenza Dill AMP R = experiment: In vitro antibacterial activity against H. Influenza Dill AMP R, MIC; settings: separate assay, unit assumed
Description: Representative compounds of the present invention were assayed in vitro for antibacterial activity as follows: Twelve petri dishes containing successive aqueous dilutions of the test compound mixed with 10 mL of sterilized Brain Heart Infusion (BHI) agar (Difco 0418-01-5) were prepared. Each plate was inoculated with 1:100 (or 1:10 for slow-growing strains, such as Micrococcus and Streptococcus) dilutions of up to 32 different microorganisms, using a Steers replicator block. The inoculated plates were incubated at 35-37° C. for 20 to 24 hours. In addition, a control plate, using BHI agar containing no test compound, was prepared and incubated at the beginning and end of each test.
After incubation, each plate was visually inspected. The minimum inhibitory concentration (MIC) was defmed as the lowest concentration of drug yielding no growth, a slight haze, or sparsely isolated colonies on the inoculum spot as compared to the growth control.
In a separate assay representative compounds of the invention were assayed in vitro for antibacterial activity against the H. Influenza Dill AMP R strain, according to the protocol described above.

[22] = tested on: STAPHYLOCOCCUS AUREUS ATCC 6538P; experiment: In vitro antibacterial activity, MIC, BHI agar dilution; settings: S. aureus ATCC 6538P, 35-37° C., 20 to 24 hours, unit assumed
[23] = tested on: STREPTOCOCCUS PYOGENES PIU 2548; experiment: as above; settings: S. pyogenes PIU 2548, unit assumed

| SMILES | MIC [1] [µg/mL] | MIC [2] [µg/mL] | MIC [3] [µg/mL] | MIC [4] [µg/mL] | MIC [5] [µg/mL] | MIC [6] [µg/mL] | MIC [7] [µg/mL] | MIC (EN[…] ATCC 8043) [µg/mL] | MIC (M[…] ATCC 4698) [µg/mL] | MIC (M[…] ATCC 9341) [µg/mL] | MIC (STR[…] 508) [µg/mL] | MIC [8] [µg/mL] | MIC [9] [µg/mL] | MIC [10] [µg/mL] | MIC (ESCHERICHIA COLI JUHL) [µg/mL] | MIC (ESCHERICHIA COLI SS) [µg/mL] | MIC (ESCHERICHIA COLI DC-2) [µg/mL] | MIC (ESCHERICHIA COLI H560) [µg/mL] | MIC (ESCHERICHIA COLI KNK 437) [µg/mL] | MIC [11] [µg/mL] | other results |
| --- | --- | --- | --- | --- | --- | --- | --- | --- | --- | --- | --- | --- | --- | --- | --- | --- | --- | --- | --- | --- | --- |
| CC[C@H]1OC(=O)[C@H](C)C(=O)[C@H](C)[C@@H](O[C@@H]2O[C@H](C)C[C@H](N(C)C)[C@H]2O)[C@](C)(OC)C[C@@H](C)C2=NC3CN(C(C)=O)CC3N3C(=O)O[C@@]1(C)[C@H]3[C@H]2C (some centres unmarked) [Example 125] | 6.2 (≈ 8.6 µM) | > 100 | 12.5 (≈ 17.3 µM) | 6.2 (≈ 8.6 µM) | 6.2 (≈ 8.6 µM) | > 100 | 6.2 (≈ 8.6 µM) | 1.56 (≈ 2.16 µM) | 6.2 (≈ 8.6 µM) | 0.78 (≈ 1.08 µM) | 0.39 (≈ 0.541 µM) | 0.2 (≈ 0.277 µM) | 0.1 (≈ 0.139 µM) | > 100 | > 100 | 0.78 (≈ 1.08 µM) | > 100 | > 100 | > 100 | > 100 | MIC [12]: > 100 µg/mL; MIC [13]: > 100 µg/mL; MIC [14]: > 100 µg/mL; MIC [15]: > 100 µg/mL; MIC [16]: > 100 µg/mL; MIC [17]: 6.2 µg/mL (≈ 8.6 µM); MIC (PSEUDOMONAS CEPACIA 296I): > 100 µg/mL; MIC [18]: 100 µg/mL (≈ 139 µM); MIC [19]: > 100 µg/mL; MIC [20]: > 100 µg/mL; MIC (CANDIDA ALBICANS CCH 442): > 100 µg/mL; MIC [21]: 50 µg/mL (≈ 69.4 µM); MIC (H. Influenza Dill AMP R): 128 µg/mL (≈ 178 µM) |
| CC[C@H]1OC(=O)[C@H](C)C(=O)[C@H](C)[C@@H](O[C@@H]2O[C@H](C)C[C@H](N(C)C)[C@H]2O)[C@](C)(OC)C[C@@H](C)C2=NC3CN(CCN(C)C)CC3N3C(=O)O[C@@]1(C)[C@H]3[C@H]2C (some centres unmarked) [Example 129] | 1.56 (≈ 2.08 µM) | > 100 | 1.56 (≈ 2.08 µM) | 1.56 (≈ 2.08 µM) | 1.56 (≈ 2.08 µM) | > 100 | 1.56 (≈ 2.08 µM) | 0.39 (≈ 0.52 µM) | 1.56 (≈ 2.08 µM) | 0.2 (≈ 0.267 µM) | 0.05 (≈ 0.0667 µM) | 0.05 (≈ 0.0667 µM) | 0.02 (≈ 0.0267 µM) | > 100 | 100 (≈ 133 µM) | 0.78 (≈ 1.04 µM) | 50 (≈ 66.7 µM) | 50 (≈ 66.7 µM) | > 100 | 100 (≈ 133 µM) | MIC [22]: 1.56 µg/mL (≈ 2.08 µM); MIC [23]: 3.1 µg/mL (≈ 4.13 µM); MIC [12]: 100 µg/mL (≈ 133 µM); MIC [13]: > 100 µg/mL; MIC [14]: > 100 µg/mL; MIC [15]: > 100 µg/mL; MIC [16]: > 100 µg/mL; MIC [17]: 1.56 µg/mL (≈ 2.08 µM); MIC (PSEUDOMONAS CEPACIA 296I): > 100 µg/mL; MIC [19]: > 100 µg/mL; MIC [20]: > 100 µg/mL; MIC (CANDIDA ALBICANS CCH 442): > 100 µg/mL; MIC [21]: 50 µg/mL (≈ 66.7 µM); MIC (H. Influenza Dill AMP R): 64 µg/mL (≈ 85.3 µM) |
| CC[C@H]1OC(=O)[C@H](C)C(=O)[C@H](C)[C@@H](O[C@@H]2O[C@H](C)C[C@H](N(C)C)[C@H]2O)[C@](C)(OC)C[C@@H](C)C2=NCC(COC(=O)c3ccccc3)N3C(=O)O[C@@]1(C)[C@H]3[C@H]2C (some centres unmarked) [Example 139] | 0.1 (≈ 0.13 µM) | > 100 | 0.1 (≈ 0.13 µM) | 0.1 (≈ 0.13 µM) | 0.1 (≈ 0.13 µM) | > 100 | 0.1 (≈ 0.13 µM) | 0.02 (≈ 0.0259 µM) | 0.2 (≈ 0.259 µM) | 0.05 (≈ 0.0648 µM) | 0.02 (≈ 0.0259 µM) | ≤ 0.005 | 0.01 (≈ 0.013 µM) | 25 (≈ 32.4 µM) | 25 (≈ 32.4 µM) | 0.39 (≈ 0.505 µM) | 25 (≈ 32.4 µM) | 25 (≈ 32.4 µM) | 50 (≈ 64.8 µM) | 100 (≈ 130 µM) | MIC [22]: 0.1 µg/mL (≈ 0.13 µM); MIC [23]: 0.39 µg/mL (≈ 0.505 µM); MIC [12]: 100 µg/mL (≈ 130 µM); MIC [13]: > 100 µg/mL; MIC [14]: > 100 µg/mL; MIC [15]: > 100 µg/mL; MIC [16]: 100 µg/mL (≈ 130 µM); MIC [17]: 0.39 µg/mL (≈ 0.505 µM); MIC (PSEUDOMONAS CEPACIA 296I): 25 µg/mL (≈ 32.4 µM); MIC [19]: > 100 µg/mL; MIC [20]: 100 µg/mL (≈ 130 µM); MIC (CANDIDA ALBICANS CCH 442): > 100 µg/mL; MIC [21]: 0.78 µg/mL (≈ 1.01 µM); MIC (H. Influenza Dill AMP R): 2 µg/mL (≈ 2.59 µM) |
